Laboratory results as given in PMC9602407, “Purification, Identification and Molecular Docking of Immunomodulatory Peptides from the Heads of Litopenaeus vannamei” (Foods, 2022).
One block for each compound: values may come before it. Where a SMILES comes first, the peptide text is derived from it. Where no end group is shown, it is not given here.

What was measured:
pepsin and trypsin = test: In vitro gastrointestinal digestion stability (pepsin, then trypsin), read out as MRPR; type: in vitro ADME; settings: for Maximal increase of MRPR through gastrointestinal digestion compared with the untreated group: 2% (w/w) pepsin pH 2.0 37 °C 2 h, then 2% (w/w) trypsin pH 7.5 37 °C 2 h, 1 mg/mL peptide
Description: The macrophages were cultured in a medium (containing 90% DMEM medium, 10% FBS, and 1% double antibody) at 37 °C and 5% CO2. The MRPR was determined following to the MTT assay used by Xu et al.. The density of the log-phase cells was adjusted to 1 × 10^5 cells/mL, and 100 μL/well of cell suspension was seeded in 96-well plates and incubated overnight in an incubator (BB-150-CO2 incubator, Thermo Scientific, Waltham, MA, USA). The perimeter of the 96-well plate was filled with PBS. The old culture medium was then discarded, 200 μL of the sample solution was added (DMEM medium was used to dissolve the sample to the desired concentration), and control and blank groups were set up with DMEM medium. After incubating for 36 h, 200 μL of medium (containing 5% MTT) was added to each well instead of the original medium and cultured in the dark for 4 h. After the supernatant was discarded, 150 μL of DMSO was added, shaken for 20 min at room temperature, and the absorbance was detected at 490 nm by a microplate reader (ELx800, BioTek Instruments, Winooski, VT, USA). The MRPR (%) was calculated using the following formula:Macrophage relative proliferation rate (%) = (A1 − A3)/(A2 − A3) × 100 (1) where A1 and A2 represented the sample solution and DMEM medium with cells (sample and control group), respectively, and A3 represented DMEM medium with no cells (blank group).
For gastrointestinal digestion stability, computer simulated gastrointestinal digestion was first performed using the PeptideCutter (https://web.expasy.org/peptide_cutter/) (accessed on 20 June 2022) with a selection of pepsin (pH > 2) and trypsin. Then, six peptides (10 mg) were dissolved in 10 mL of distilled water, the pH was adjusted to pH 2.0 with 1 M HCl, and then 2% (w/w) pepsin was added and incubated at 37 °C for 2 h to simulate gastric digestion. The pH of the gastric digest was then adjusted to 5.3 with 0.9 M NaHCO3 solution and to pH 7.5 with 1 M NaOH solution. Following this, 2% (w/w) trypsin was added and incubated at 37 °C for 2 h to simulate intestinal digestion. After digestion, the digest was inactivated in a water bath at 100 °C for 10 min, centrifuged at 10,000 r/min for 10 min, and the supernatant was freeze-dried to obtain the gastric intestinal digest of each of the six synthetic peptides. The MRPR was determined using the sample without any treatment as the control.

splenic lymphocytes = tested on: splenic lymphocytes; design: method as in doi:10.1016/j.jff.2020.103887; settings: 100 μg/mL; cited from earlier work
TNF-α secretion = tested on: TNF-α secretion; design: method as in doi:10.1016/j.jff.2020.103887; settings: 100 μg/mL; cited from earlier work
[1] = design: method as in doi:10.1016/j.jff.2020.103887; settings: 100 μg/mL; cited from earlier work

Compound: CSCC[C@H](NC(=O)CNC(=O)[C@@H]1CCCN1)C(=O)N[C@@H](CCCNC(=N)N)C(=O)O [PGMR] (H-PGMR-OH)
Change of activity (MRPR) through gastrointestinal digestion, in words (pepsin and trypsin; pepsin then trypsin, 37 °C, 2 h each, versus untreated group): decreased, but was not significantly different

Compound: RGPPP [Pseudostellaria heterophylla peptide from the literature]
Stimulation index on splenic lymphocytes (splenic lymphocytes): 1.27 | TNF-α secretion upregulated to (TNF-α secretion): 827.24 pg/mL | Cytokinesis rate increased to [1]: 123.81%

Compound: GPQGPPGH [GPQGPPGH]
Maximal increase of MRPR through gastrointestinal digestion compared with the untreated group (pepsin and trypsin; read-out MRPR): 4.17%

More lines, now with the values ahead:

MRPR after the action of pepsin (pepsin and trypsin; 2% (w/w) pepsin, pH 2.0, 37 °C, 2 h, read-out MRPR, mean ± SD): 143.06 ± 7.71% | MRPR after the action of trypsin (pepsin and trypsin; after pepsin step, 2% (w/w) trypsin, pH 7.5, 37 °C, 2 h, read-out MRPR, mean ± SD): 148.80 ± 0.41%
Compound: PSPFPYFT [PSPFPYFT]

Increase of MRPR in the gastric digestion (pepsin and trypsin; 2% (w/w) pepsin, pH 2.0, 37 °C, 2 h, versus untreated): 11.23%
Compound: SAGFPEGF [SAGFPEGF]

Maximal increase of MRPR through gastrointestinal digestion compared with the untreated group (pepsin and trypsin; read-out MRPR): 7.36%
Compound: N=C(N)NCCC[C@H](NC(=O)[C@H](CCC(N)=O)NC(=O)[C@@H](N)Cc1c[nH]c2ccccc12)C(=O)O [WQR] (H-Trp-Gln-Arg-OH)
